What was measured:
[1] = tested on: selenium dependent glutathione peroxidase; test: hepatic activity of Se-dependent glutathione peroxidase (SeGSHpx); assay type: in vivo, BALBC mice; conditions: for liver SeGSHpx: 3 months, mean ± SEM; for SeGSHpx: hepatic, 39 weeks
Text: (§1) To determine the effectiveness of selenium supplementation in the form of topical application and oral administration of L-selenomethionine in providing protection for ultraviolet radiation-induced skin damage, 120 BALB-C female mice and 40 female Skh:2 hairless, pigmented, dark-eyed mice were obtained and separated into treatment groups as follows:
(§2) During the treatment, the BALB-C mice were shaved on the back one per week. 100 λ of a composition according to the invention in the form of an oil-in-water emulsion location containing 0.02% L-selenomethionine was applied three times a week to the backs and ears of the mice for a period of one week prior to beginning irradiation with ultraviolet light. The lotion carrier was formulated from an oil phase containing 21/2% polypropylene glycol-3-myristyl ether, 2% squalane, 0.5% safflower oil, 1% Myrj 52S emulsifier, 0.75% cetyl alcohol, 0.3% SPAN-60, 6.5% Amercol L101, 0.5% Lanocerin, 1% glyceral monostearate, 0.1% preservative, 1% Silicone 200, 1% stearic acid, and 0.5% isostearic acid; and an aqueous phase containing 68.5% distilled water, 0.75% triethanolamine, 5% propylene glycol, 0.3% preservative, 0.1% allantoin, 0.4% Germal II dissolved in 2% water, and 5% of Carbopol 941 (2.5% solution). Each 100 λ application of the composition penetrated the skin within a period of ten minutes. The composition continued to be applied thirty minutes before each thrice weekly irradiation.
(§3) Maintenance exposure times for the BALB-C mice was 50 minutes, while for the Skh:2 mice it was 15 minutes. Irradiation with four Westinghouse FS40 sunlamps was begun at 5 minute exposures, however, and increased by 5 minutes per session for the BALB-C mice and by 2.5 minutes per session for the Skh:2 mice until the respective maintenance exposure level for each type of mouse was reached. The maintenance dose of UV radiation for the BALB-C mice was 0.58 Joules/sq. cm./exposure and for the Skh:2 mice, 0.24 Joules/s. cm./exposure. This irradiation was continued for 28 weeks for the BALB-C mice (about 41 joules/sq. cm. total) and 24 weeks for the Skh:2 mice (about 15 joules/sq. cm. total).
(§4) Since selenium is a co-factor for a free-radical quenching enzyme, glutathione peroxidase, the level of two hepatic free-radical quenching enzymes, selenium dependent glutathione peroxidase and superoxide dismutase were also tested.

[2] = tested on: ultraviolet radiation-induced skin damage; test: protection from UV radiation-induced skin damage (inflammation, i.e. sunburn; skin cancers); assay type: in vivo
Text: (§5) This is illustrated in Table 6, where the pigmentation of selenium supplemented mice is reduced.

[3] = tested on: UV irradiated BALB-C mice (skin cancers); test: clinically detectable skin tumors and mortality in UV irradiated and unirradiated BALB-C mice; assay type: in vivo, BALB-C female mice
Text: as §1, §2, §3
(§6) To evaluate the effectiveness of the selenium supplementation in protecting against skin cancers and the relative merits of the claimed composition, the total number of clinically detectable skin cancers in each group was counted.
Tumors greater than 5 mm in size were also considered, but the observed results were inconclusive due to the complicating effect of mortality in irradiated/non-selenium supplemented mice.

[4] = tissue Se in BALBC mice after 3 months; conditions: mouse, in vivo; for concentration at 2190 h: tissue Se
Text: as §1, §2, §3
(§7) After 12 weeks, 6 irradiated and 4 non-irradiated BALB-C mice were sacrificed, and at 39 weeks the remaining BALB-C mice were sacrificed. The liver and skin selenium levels were determined.

[5] = design: species or system KH2 (Skh:2) mice; conditions: mouse, in vivo
Text: as §1
as §2, with “Each 100 λ application of the composition penetrated the skin within a period of ten minutes. The composition continued to be applied thirty minutes before each thrice weekly irradiation.” left out
(§8) Throughout the studies, the weights of the mice and the total feed and water intake were monitored.

[6] = design: species or system BALBC mice; conditions: mouse, in vivo, po
Text: as §1
as §2, with “Each 100 λ application of the composition penetrated the skin within a period of ten minutes. The composition continued to be applied thirty minutes before each thrice weekly irradiation.” left out
as §8

[7] = in vivo
[8] = tested on: UV irradiated Skh:2 mice (skin cancers); test: clinically detectable skin tumors in UV irradiated Skh:2 mice; assay type: in vivo, female Skh:2 hairless, pigmented mice
Text: as §1
During the treatment, the BALB-C mice were shaved on the back one per week. 100 λ of a composition according to the invention in the form of an oil-in-water emulsion location containing 0.02% L-selenomethionine was applied three times a week to the backs and ears of the mice for a period of one week prior to beginning irradiation with ultraviolet light. […]
as §6

[9] = in vivo; design: species or system BALBc mice; conditions: mouse; for Liver Se / Ventral skin Se / dorsal skin Se: 6552 h
Text: as §1, §2, §3, §7

[10] = tested on: superoxide dismutase; test: hepatic activity of superoxide dismutase (SOD); assay type: in vivo, BALBc mice; conditions: 39 weeks, pH 10.2
Method: as §4
^1 SOD was measured by the inihibition of the spontaneous oxidation o
epinephrine at pH 10.2; 1 EU = 50% inhibition.

[11] = toxicity in selenium treated mice (hepatic enzymes, alkaline phosphatase); assay type: in vivo
[12] = absorption into treated human skin; assay type: in vivo; conditions: topical
Text: Topical application of selenoamino acid compositions in accordance with the invention provides a different type of protection than that afforded by conventional sunscreens, such as those containing p-amino benzoic acid, because the selenium is actually absorbed into treated human skin within a period of less than fifteen minutes. Thus, unlike a superficial sunscreen, the protective effect of the selenomethionine is not washed off by, e.g., swimming or sweating. Thus, frequent reapplication is not required to maintain protection, as is the case with known sunscreen products.

[13] = assay type: in vivo; conditions: 100 λ of 0.02% L-selenomethionine oil-in-water lotion, mice
Text: as §2

[14] = selenium levels in skin, plasma/serum and liver after topical application (general statement)
[15] = tested on: pigmentation of Skh:2 mice; test: Pigmentation of Skh:2 mice after exposure to UV-irradiation; assay type: in vivo; conditions: for Pigmentation score: +4 = dark pigmentation, 0 = no pigmentation
Text: as §1, §2, §3, §5

[16] = topical; cited from earlier work
[17] = tested on: UV-induced skin cancer in hairless mice; conditions: oral, cited from earlier work
[18] = unirradiated BALB-C, groups 4-6

In the case of `C[Se]CC[C@H](N)C(=O)O` [L-selenomethionine], the “liver SeGSHpx” value ([1]; UV +, drinking water, n = 6) is reported as 125.69 ± 14.59 nmoles NADPH/min/mg, the “liver SeGSHpx” value ([1]; UV +, topical, n = 6) is reported as 124.15 ± 10.51 nmoles NADPH/min/mg and the “liver SeGSHpx” value ([1]; UV -, drinking water, n = 4) is reported as 141.49 ± 18.71 nmoles NADPH/min/mg. For the same compound, the “liver SeGSHpx” value ([1]; UV -, topical, n = 4) was 160.18 ± 17.36 nmoles NADPH/min/mg, the SeGSHpx ([1]; UV +, d.water, n = 20) was 114.91 ± 12.20 nmoles NADPH/mg-min and the SeGSHpx ([1]; UV +, topical, n = 13) was 85.97 ± 9.92 nmoles NADPH/mg-min. For the same compound, the SeGSHpx ([1]; UV -, d.water, n = 4) was 57.98 ± 10.82 nmoles NADPH/mg-min, the SeGSHpx ([1]; UV -, topical, n = 4) was 83.30 ± 20.83 nmoles NADPH/mg-min and the “protection against less severe UV radiation-induced damage (inflammation i.e. sunburn and pigmentation)” value ([2]; topical) was “observed to protect the skin against less severe types of ultraviolet radiation-induced damage such as inflammation i.e. sunburn and pigmentation”. For the same compound, the “incidence of skin cancers following exposure to ultraviolet radiation” value ([2]; topical application) was “significantly reduce the incidence of skin cancers”, the UV-induced mortality ([3]; irradiated BALB-C, groups 1-3, FIG. 3) was “clear reduction in UV-induced mortality” and the “protection against skin cancers (tumors over 3 mm; animals with tumors)” value ([3]; irradiated BALB-C, topical and oral, FIGS. 1, 2) was “comparable protection against skin cancers”. For the same compound, the “tumors greater than 5 mm” value ([3]; irradiated BALB-C, complicated by mortality of non-supplemented mice) was “inconclusive”, the “deaths during the test period” value [3, 18] was “none died” and the “tumors observed during the experimental period” value [3, 18] was “no tumors observed”. For the same compound, the “selenium levels in the localized part of the skin treated” value [4] was “preferential increase in selenium levels in the localized part of the skin actually treated”, the “selenium levels in the treated skin” value [4] was “substantially enhanced selenium levels in the treated skin” and the “tissue Se, dorsal skin” value ([4]; po, 2190 h) was “.578 ± .061 g/g”. The “tissue Se, ventral skin” value ([4]; po, 2190 h) was “.666 ± .046 g/g”, the concentration at 2190 h ([4]; po, dorsal skin) was 913 ± 74 ng/g and the concentration at 2190 h ([4]; po, liver) was 1600 ± 186 ng/g. The concentration at 2190 h ([4]; po, ventral skin) was 728 ± 28 ng/g, the concentration at 2190 h ([4]; topical or ocular, dorsal skin) was 4520 ± 568 ng/g and the concentration at 2190 h ([4]; topical or ocular, liver) was 2240 ± 353 ng/g. For the same compound, the concentration at 2190 h ([4]; topical or ocular, ventral skin) was 1860 ± 193 ng/g, the “Feed Intake” value [5] was 496.5 ± 31.1 g/mouse and the “Water Intake” value [5] was 594.6 ± 43.0 g/mouse. The “effect on feeding habits” value [6] was “little effect on the feeding habits of the mice”, the “selenium concentration in the skin in the area of application” value [7] was “higher than that attained using a comparable oral dosage of selenium” and the “selenium levels in the plasma and liver” value [7] was “enhanced levels of selenium in the plasma and liver”. For the same compound, the “selenium levels in the skin” value [7] was “significantly enhanced levels of selenium in the skin”, the “selenium levels in untreated skin, serum and liver” value [7] was “comparable to those in animal receiving oral doses of selenium” and the “protection against skin cancers (tumors over 3 mm; animals with tumors)” value ([8]; irradiated Skh:2, topical and oral, FIGS. 4, 5) was “comparable protection against skin cancers”. For the same compound, the “observations based upon 5 mm tumors” value ([8]; irradiated Skh:2, control mortality a complicating factor) was “superior in the selenium-supplemented mice”, the “Liver Se” value ([9]; po) was 1.674 ± .137 ppm and the “Ventral skin Se” value ([9]; po) was “.521 ± .018 ppm”. For the same compound, the “dorsal skin Se” value ([9]; po) was “.432 ± .023 ppm”, the concentration at 6552 h ([9]; po, Liver Se) was 1560 ± 84 ng/g and the concentration at 6552 h ([9]; po, Ventral skin Se) was 508 ± 26 ng/g. The concentration at 6552 h ([9]; po, dorsal skin Se) was 562 ± 40 ng/g, the “Liver Se” value ([9]; topical or ocular) was 1.481 ± .156 ppm and the “Ventral skin Se” value ([9]; topical or ocular) was “.777 ± .069 ppm”. The “dorsal skin Se” value ([9]; topical or ocular) was 2.255 ± .582 ppm, the concentration at 6552 h ([9]; topical or ocular, Liver Se) was 1420 ± 150 ng/g and the concentration at 6552 h ([9]; topical or ocular, Ventral skin Se) was 843 ± 76 ng/g. The concentration at 6552 h ([9]; topical or ocular, dorsal skin Se) was 2010 ± 190 ng/g, the SOD ([10]; UV +, d.water, n = 20, 1 EU = 50% inhibition of epinephrine oxidation) was 243 ± 67 EU/g and the SOD ([10]; UV +, topical, n = 13, 1 EU = 50% inhibition of epinephrine oxidation) was 181 ± 51 EU/g. For the same compound, the SOD ([10]; UV -, d.water, n = 4, 1 EU = 50% inhibition of epinephrine oxidation) was 109 ± 43 EU/g, the SOD ([10]; UV -, topical, n = 4, 1 EU = 50% inhibition of epinephrine oxidation) was 88 ± 34 EU/g and the toxicity [11] was “no evidence of toxicity”. For the same compound, the “time in which selenium is absorbed into treated human skin” value [12] was “less than fifteen”, the “time in which the composition penetrated the skin” value [13] was “ten” and the toxicity [14] was “without toxicity”. For the same compound, the Pigmentation score ([15]; oral, week 7, no selenium 3.3) was 1.7, the Pigmentation score ([15]; oral, week 12, no selenium 3.5) was 2.5 and the Pigmentation score ([15]; oral, week 16, no selenium 3.6) was 2.6. The pigmentation ([15]; selenium supplemented mice, Table 6) was “reduced”, the Pigmentation score ([15]; topical, week 7, no selenium 3.3) was 2.3 and the Pigmentation score ([15]; topical, week 12, no selenium 3.5) was 2.7. For the same compound, the Pigmentation score ([15]; topical, week 16, no selenium 3.6) was 2.6.

For `S=[Se]=S` [Selenium sulfide, selenium sulfide], the “skin penetration / selenium levels in the serum or liver” value [16] is given as “does not penetrate the skin to give increased levels of selenium in the serum or liver”.

For `O=[Se](O)O` [sodium selenite], the animal growth rate ([17]; decreased weight gain relative to controls) is given as “moderate inhibition of animal growth rate”, the “protection against UV-induced skin cancer” value [17] is given as “dose-dependent selenium protection against UV-induced skin cancer” and the “resistance to acute and sub-acute effects of UV radiation (inflammation and pigmentation)” value [17] is given as “more resistant to the acute and sub-acute effects of UV radiation”.

Source: patent US4865840A, “Topical compositions containing selenoamino acids for the prevention of ultraviolet radiation-induced skin damage” (priority 1987, dated 1989)
